Assay results: patent US8765729B2, “Cancer therapy” (Aeolus Sciences, Inc., priority 2001, dated 2014)

Columns and labels:
B16 melanoma tumor = B16 melanoma tumor growth in mice treated with SOD mimetic; assay type: in vivo; settings: 6 mg/kg i.p.
Protocol: (§1) FIGS. 2A-2C. (FIG. 2A) B16 melanoma tumor treated with SOD mimetic. The mimetic was 10113 at a dose of 6 mg/kg given intraperitoneally qd for 5 days. (FIG. 2B) Mammary adenocarcinoma treated with SOD mimetic. 10113 was given intraperitoneally at a dose of 6 mg/kg/day for 16 days. Radiation therapy (RT), 21 Gy, was given on day 8 or 9. (FIG. 2C) Fischer 344 rats with subcutaneously implanted R3230 AC mammary adenocarcinomas received Radiation treatment (21 Gy Day 1), AEOL 10113 (6 mg/kg/day IP Day 1 to 20), the combination Radiation and AEOL 10113 (as above), or Control treatment.
(§2) The effect of the MnTE-2-PyP (manganese(III) tetrakis(N-ethylpyridinium-2-yl)porphyrin) on tumor growth and radiation response in two tumor models has been tested. […] The effect of the SOD mimetic. MnTE-2-PyP, on tumor growth and radiation response has been tested in a rat model.

[1] = test system: R3230 AC mammary adenocarcinoma; assay: R3230 AC mammary adenocarcinoma growth and radiation response in Fischer 344 rats; assay type: in vivo; settings: for tumor growth as compared to control (Day 20 Tumor Ratio, Days for 5-fold tumor growth): 6 mg/kg/day IP Day 1 to 20, FIG. 2C
Protocol: as §1, §2
R3220 AC mammary adenocarcinoma was transplanted on the right hind leg. When the tumors reached 0.8-1 cm in diameter, the rats were randomized into 4 groups to receive 1) Saline (control); 2) Drug 10150; 3) Drug 10113; 4) Drug 10201. Drugs were given daily in dose of […] i.p. The tumor size was measured twice a week. (FIG. 3).

[2] = test system: R3230 mammary adenocarcinoma cells in Z-chambers; assay: Tumor development in Z-chambers; assay type: in vivo, Fisher-344 rats; settings: 6 mg/kg i.p. 24 hours before implantation of 2.5 mil./ml cells
Protocol: FIG. 4. Animals were pretreated with different SOD mimetics (6 mg/kg i.p.) 24 hours before implantation of 2.5 mil./ml R3230 mammary adenocarcinoma cells in Z-chambers.
These chambers are constructed from customized plexi-glass rings with internal diameter of 10 mm and have a pore on the side. The two open surfaces are covered by nylon mesh (pore size 180 microns, Millipore, Mass.) and glued to the rings. Fibrinogen (Human fibrinogen, plasminogen depleted, CalBiochem) is prepared in DMEM, Gibco BRL) and a concentration of 4-5 mg/ml is utilized for the studies. Although the Fischer rats used in the study are immune competent, this purified batch of fibrinogen has been recognized to be very well conserved across species lines. It has already been shown that early angiogenic response to human fibrinogen is very similar to rat fibrinogen in fibrin gel chambers. The two different types of fibrinogen have also been tested in the Z-Chambers and no difference was found in angiogenic and healing response. Human fibrinogen was used.
The Fibrin Z-Chambers have fibrinogen solution poured inside the chamber through the pore and followed by 2 units of thrombin. […]
The Z-Chambers were harvested on day 1 or 12 post surgery. […] The depth of either the tumor tissue (tumor growth) or granulation tissue (wound healing) was measured with calipers on the 4×6 inch print. […]

[3] = test system: tumor angiogenesis, R230 mammary adenocarcinoma cells in Z-chambers; assay: Tumor angiogenesis in Z-chambers (microvessel density); assay type: in vivo, Fisher-344 rats; settings: 6 mg/kg i.p. 24 hours before implantation
Protocol: FIG. 5. Antiangiogenesis: Animals were pretreated with different SOD mimetics (6 mg/kg i.p.) 24 hours before implantation of 2.5 mil./ml R230 mammary adenocarcinoma cells in Z-chambers.
Immunohistochemistry was carried out using procedures described by Hsu et al (Hsu et al., j. Histochem. Cytochem. 29:577-580 (1981)). Briefly, paraffin embedded tissues were sectioned (5 microns) and antigen retrieval was performed using citrate buffer from Biogenex (San Ramon, Calif.). Tissues were treated with primary antibody against tissue transglutaminase (TG100, 1:10, endothelial cell marker, non-reactive to Factor XIIIa) (Neomarkers, Calif.) for 1 hour at 37° C. Secondary antibody (Jackson ImmunoResearch. PA) and tertiary. (Vector, Calif.) antibodies were incubated for 25 minutes at 37° C. and the location of the reaction was visualized with 3,3-diaminobenzidine tetrahydrochloride Sigma (St. Louis, Mo.). Slides were counterstained with hematoxylin and mounted with coverslips. Controls for the immunohistochemistry were treated with mouse IgG instead of primary antibody and were negative in any reactivity. […] Microvessel density was calculated as described by Weidner et al (Weidner et al, J. New Engl. J. Med. 324:1-8 (1991)). Briefly, six hot spots or areas with highest vessels marked by the vessel marker at a high power field (400×) per sample section were selected and number of blood vessel counted. […]

SMILES: CC[n+]1ccccc1-c1c2nc(c(-c3cccc[n+]3CC)c3ccc([n-]3)c(-c3cccc[n+]3CC)c3nc(c(-c4cccc[n+]4CC)c4ccc1[n-]4)C=C3)C=C2.[Mn+3] [Compound 10113, manganese(III)tetrakis(N-ethylpyridinium-2-yl)porphyrin]
- inhibition of tumor growth (B16 melanoma tumor; mice with B16 melanoma): significant inhibition of tumor growth
- Tumor doubling time (B16 melanoma tumor; control group 2 days): 4 days
- tumor growth as compared to control (Day 20 Tumor Ratio, Days for 5-fold tumor growth) ([1]; listed as AEL 10113): limited tumor growth
- tumor growth as compared to control (Day 20 Tumor Ratio, Days for 5-fold tumor growth) ([1]; listed as AEOL 10113): significantly (p<0.05) inhibited tumor growth
- post-radiation tumor regrowth ([1]; radiation 21 Gy plus mimetic): significant inhibition of the post-radiation tumor regrowth
- effect on tumor response to radiation ([1]; radiation 21 Gy plus mimetic, listed as AEL 10113): did not diminish the effect of radiation on tumor growth
- effect on tumor response to radiation ([1]; radiation 21 Gy plus mimetic, listed as MnTE-2-PyP): does not protect tumor from irradiation
- inhibition of tumor growth ([1]; rat model, SOD mimetic alone): > 50%
- tumor development [2]: Significant (p<0.01) inhibition of tumor development
- tumor angiogenesis [3]: Significant inhibition of tumor angiogenesis
